Biological target: Beta-3 Adrenergic Receptor (Homo sapiens (Human), UniProt P13945)
Test: HTRF cAMP antagonist assay (IC50 determination)
Format: cell-based
Conditions: CHO-K1 cells stably expressing recombinant receptor; antagonism of isoproterenol at EC90; cAMP readout
How it was run: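 Antagonist mode: isoproterenol at its predetermined EC90 added after compound to recombinant CHO-K1 cells in IBMX-containing PBS, 1 h, room temperature. Compounds tested as 5-fold, 10-point dilutions, top final typically 10 or 100 μM. HTRF signal converted to cAMP via standard curve, giving IC50.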

Beta-3 Adrenergic Receptor, sequence (P13945 whole entry, species assumed): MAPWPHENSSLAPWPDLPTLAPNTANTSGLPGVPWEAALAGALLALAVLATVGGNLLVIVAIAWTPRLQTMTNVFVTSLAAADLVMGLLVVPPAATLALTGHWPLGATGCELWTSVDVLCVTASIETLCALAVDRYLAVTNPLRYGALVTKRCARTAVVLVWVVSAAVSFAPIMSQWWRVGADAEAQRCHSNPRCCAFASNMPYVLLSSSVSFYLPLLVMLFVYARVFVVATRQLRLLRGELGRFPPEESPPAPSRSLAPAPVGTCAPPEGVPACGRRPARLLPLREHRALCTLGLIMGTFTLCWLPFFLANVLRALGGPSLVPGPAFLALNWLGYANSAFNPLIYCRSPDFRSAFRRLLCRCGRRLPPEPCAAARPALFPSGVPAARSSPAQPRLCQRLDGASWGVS

| IC50 | Structure (SMILES) |
| --- | --- |
| 109 nM | CCn1ncc(S(=O)(=O)N2CCC3(CC2)CC(NC[C@H](O)COc2cccc(S(C)(=O)=O)c2)CO3)c1C (stereo partly drawn) [Compound 58, (2S)-1-(8-(1-ethyl-5-methyl-1H-pyrazol-4-ylsulfonyl)-1-oxa-8-azaspiro[4.5]decan-3-ylamino)-3-(3-(methylsulfonyl)phenoxy)propan-2-ol] |
| 56.7 nM | O=S(=O)(CCCC(F)(F)F)c1cccc(OC[C@@H](O)CNC2COC3(CCN(S(=O)(=O)c4ccc5ccccc5c4)CC3)C2)c1 (stereo partly drawn) [Compound 14, (2S)-1-(8-(naphthalen-2-ylsulfonyl)-1-oxa-8-azaspiro[4.5]decan-3-ylamino)-3-(3-(4,4,4-trifluorobutylsulfonyl)phenoxy)propan-2-ol] |
| 17.4 nM | CS(=O)(=O)c1cccc(OC[C@@H](O)CNC2COC3(CCN(S(=O)(=O)c4ccc(-c5ccccc5)s4)CC3)C2)c1 (stereo partly drawn) [Compound 51, (2S)-1-(3-(methylsulfonyl)phenoxy)-3-(8-(5-phenylthiophen-2-ylsulfonyl)-1-oxa-8-azaspiro[4.5]decan-3-ylamino)propan-2-ol] |
| 106 nM | O=S(=O)(c1cnc2c(c1)CCCO2)N1CCC2(CC1)C[C@@H](NC[C@H](O)COc1cccc(S(=O)(=O)C3(CO)CC3)c1)CO2 [Compound 284, (S)-1-((R)-8-(3,4-dihydro-2H-pyrano[2,3-b]pyridin-6-ylsulfonyl)-1-oxa-8-azaspiro[4.5]decan-3-ylamino)-3-(3-(1-(hydroxymethyl)cyclopropylsulfonyl)phenoxy)propan-2-ol] |
| 35.1 nM | CS(=O)(=O)c1cccc(OC[C@@H](O)CNC2COC3(CCN(S(=O)(=O)c4ccc5[nH]ncc5c4)CC3)C2)c1 (stereo partly shown) [Compound 77, (2,5)-1-(8-(1H-indazol-5-ylsulfonyl)-1-oxa-8-azaspiro[4.5]decan-3-ylamino)-3-(3-(methylsulfonyl)phenoxy)propan-2-ol] |
| 27.7 nM | NCc1ccc(-c2cccc(S(=O)(=O)N3CCC4(CC3)C[C@H](NC[C@H](O)COc3cccc(S(=O)(=O)C5(CO)CC5)c3)CO4)c2)cc1 [Compound 164, (S)-1-((S)-8-(4′-(aminomethyl)biphenyl-3-ylsulfonyl)-1-oxa-8-azaspiro[4.5]decan-3-ylamino)-3-(3-(1-(hydroxymethyl)cyclopropylsulfonyl)phenoxy)propan-2-ol] |
| 53.5 nM | O=S(=O)(CCO)c1cccc(OC[C@@H](O)CN[C@H]2COC3(CCN(S(=O)(=O)c4ccc5c(c4)CCCO5)CC3)C2)c1 [Compound 83, (S)-1-((R)-8-(chroman-6-ylsulfonyl)-1-oxa-8-azaspiro[4.5]decan-3-ylamino)-3-(3-(2-hydroxyethylsulfonyl)phenoxy)propan-2-ol] |
| 34.2 nM | CN1CCOc2cc(S(=O)(=O)N3CCC4(CC3)C[C@@H](NC[C@H](O)COc3cccc(S(=O)(=O)C5CC5)c3)CO4)cnc21 [Compound 290, (S)-1-(3-(cyclopropylsulfonyl)phenoxy)-3-((R)-8-(4-methyl-3,4-dihydro-2H-pyrido[3,2-b][1,4]oxazin-7-ylsulfonyl)-1-oxa-8-azaspiro[4.5]decan-3-ylamino)propan-2-ol] |
| 31.7 nM | CC(C)(C)NCc1ccc(-c2cccc(S(=O)(=O)N3CCC4(CC3)C[C@H](NC[C@H](O)COc3cccc(S(=O)(=O)C5(CO)CC5)c3)CO4)c2)cc1 [Compound 240, (S)-1-((S)-8-(4′-((tert-butylamino)methyl)biphenyl-3-ylsulfonyl)-1-oxa-8-azaspiro[4.5]decan-3-ylamino)-3-(3-(1-(hydroxymethyl)cyclopropylsulfonyl)phenoxy)propan-2-ol] |
| 45.9 nM | O=S(=O)(CC1CC1)c1cccc(OC[C@@H](O)CN[C@H]2COC3(CCN(S(=O)(=O)c4cnc5ccccc5c4)CC3)C2)c1 [Compound 140, (S)-1-(3-(cyclopropylmethylsulfonyl)phenoxy)-3-((R)-8-(quinolin-3-ylsulfonyl)-1-oxa-8-azaspiro[4.5]decan-3-ylamino)propan-2-ol] |
| 14.4 nM | CS(=O)(=O)Cc1cccc(OC[C@@H](O)CNC2COC3(CCN(S(=O)(=O)c4ccc5ccccc5c4)CC3)C2)c1 (stereo partly drawn) [Compound 335, (2S)-1-(3-(methylsulfonylmethyl)phenoxy)-3-(8-(naphthalen-2-ylsulfonyl)-1-oxa-8-azaspiro[4.5]decan-3-ylamino)propan-2-ol] |
| 95.2 nM | CCn1cc(S(=O)(=O)N2CCC3(CC2)C[C@@H](NC[C@H](O)COc2cccc(S(=O)(=O)C4CC4)c2)CO3)c(=O)c2ccc(C)cc21 [Compound 318, 3-((R)-3-((S)-3-(3-(cyclopropylsulfonyl)phenoxy)-2-hydroxypropylamino)-1-oxa-8-azaspiro[4.5]decan-8-ylsulfonyl)-1-ethyl-7-methylquinolin-4(1H)-one] |
| 22.4 nM | NCCc1ccc(-c2cccc(S(=O)(=O)N3CCC4(CC3)C[C@H](NC[C@H](O)COc3cccc(S(=O)(=O)C(F)(F)CO)c3)CO4)c2)cc1 [Compound 210, (S)-1-((S)-8-(4′-(2-aminoethyl)biphenyl-3-ylsulfonyl)-1-oxa-8-azaspiro[4.5]decan-3-ylamino)-3-(3-(1,1-difluoro-2-hydroxyethylsulfonyl)phenoxy)propan-2-ol] |
| 62.2 nM | Cc1c(-c2ccc(C3(N)CC3)cc2)cccc1S(=O)(=O)N1CCC2(CC1)C[C@H](NC[C@H](O)COc1cccc(S(=O)(=O)C3(CO)CC3)c1)CO2 [Compound 198, (S)-1-((S)-8-(4′-(1-aminocyclopropyl)-2-methylbiphenyl-3-ylsulfonyl)-1-oxa-8-azaspiro[4.5]decan-3-ylamino)-3-(3-(1-(hydroxymethyl)cyclopropylsulfonyl)phenoxy)propan-2-ol] |
| 42.3 nM | CCn1cc(S(=O)(=O)N2CCC3(CC2)C[C@@H](NC[C@H](O)COc2cccc(S(=O)(=O)C(C)C)c2)CO3)c(=O)c2ccccc21 [Compound 332, 1-ethyl-3-((R)-3-((S)-2-hydroxy-3-(3-(isopropylsulfonyl)phenoxy)propylamino)-1-oxa-8-azaspiro[4.5]decan-8-ylsulfonyl)quinolin-4(1H)-one] |
| 980 nM | O=S(=O)(c1cccc(-c2ccc(CNCC(F)(F)F)cc2)c1)N1CCC2(CC1)C[C@@H](NC[C@H](O)COc1cccc(S(=O)(=O)C3(CO)CC3)c1)CO2 [Compound 264, (S)-1-(3-(1-(hydroxymethyl)cyclopropylsulfonyl)phenoxy)-3-((R)-8-(4′-((2,2,2-trifluoroethylamino)methyl)biphenyl-3-ylsulfonyl)-1-oxa-8-azaspiro[4.5]decan-3-ylamino)propan-2-ol] |
| 17.1 nM | C[C@@H]1CN(C)c2cc(S(=O)(=O)N3CCC4(CC3)C[C@@H](NC[C@H](O)COc3cccc(S(=O)(=O)C5CC5)c3)CO4)cnc2O1 [Compound 305, (S)-1-(3-(cyclopropylsulfonyl)phenoxy)-3-((R)-8-((R)-1,3-dimethyl-2,3-dihydro-1H-pyrido[2,3-b][1,4]oxazin-7-ylsulfonyl)-1-oxa-8-azaspiro[4.5]decan-3-ylamino)propan-2-ol] |
| 29.5 nM | NCc1ccc(-c2ccc(F)c(S(=O)(=O)N3CCC4(CC3)C[C@H](NC[C@H](O)COc3cccc(S(=O)(=O)C5(CO)CC5)c3)CO4)c2)cc1 [Compound 162, (S)-1-((S)-8-(4′-(aminomethyl)-4-fluorobiphenyl-3-ylsulfonyl)-1-oxa-8-azaspiro[4.5]decan-3-ylamino)-3-(3-(1-(hydroxymethyl)cyclopropylsulfonyl)phenoxy)propan-2-ol] |
| 78.2 nM | CC(C)CS(=O)(=O)c1cccc(OC[C@@H](O)CN[C@H]2COC3(CCN(S(=O)(=O)c4cnc5ccccc5c4)CC3)C2)c1 [Compound 124, (S)-1-(3-(isobutylsulfonyl)phenoxy)-3-((R)-8-(quinolin-3-ylsulfonyl)-1-oxa-8-azaspiro[4.5]decan-3-ylamino)propan-2-ol] |
| 120 nM | CCCS(=O)(=O)c1cccc(OC[C@@H](O)CN[C@H]2COC3(CCN(S(=O)(=O)c4ccc5ncccc5c4)CC3)C2)c1 [Compound 115, (S)-1-(3-(propylsulfonyl)phenoxy)-3-((R)-8-(quinolin-6-ylsulfonyl)-1-oxa-8-azaspiro[4.5]decan-3-ylamino)propan-2-ol] |
| 25.7 nM | O=S(=O)(c1cnc2ccccc2c1)N1CCC2(CC1)C[C@@H](NC[C@H](O)COc1cccc(S(=O)(=O)C3(CO)CCC3)c1)CO2 [Compound 107, (S)-1-(3-(1-(hydroxymethyl)cyclobutylsulfonyl)phenoxy)-3-((R)-8-(quinolin-3-ylsulfonyl)-1-oxa-8-azaspiro[4.5]decan-3-ylamino)propan-2-ol] |
| 21.5 nM | CCn1cc(-c2cccc(S(=O)(=O)N3CCC4(CC3)CC(NC[C@H](O)COc3cccc(S(C)(=O)=O)c3)CO4)c2)cn1 (stereo partly drawn) [Compound 36, (2S)-1-(8-(3-(1-ethyl-1H-pyrazol-4-yl)phenylsulfonyl)-1-oxa-8-azaspiro[4.5]decan-3-ylamino)-3-(3-(methylsulfonyl)phenoxy)propan-2-ol] |
| 1810 nM | Cc1c(S(=O)(=O)N2CCC3(CC2)C[C@@H](NC[C@H](O)COc2cccc(S(=O)(=O)CC(N)=O)c2)CO3)cnc2c1N(C)CCO2 [Compound 276, 2-(3-((S)-3-((R)-8-(1,8-dimethyl-2,3-dihydro-1H-pyrido[2,3-b][1,4]oxazin-7-ylsulfonyl)-1-oxa-8-azaspiro[4.5]decan-3-ylamino)-2-hydroxypropoxy)phenylsulfonyl)acetamide] |
| 33.4 nM | CCOc1ccc(-c2ccc(CN)cc2)cc1S(=O)(=O)N1CCC2(CC1)C[C@H](NC[C@H](O)COc1cccc(S(=O)(=O)C(C)(C)CO)c1)CO2 [Compound 187, 2-(3-((S)-3-((S)-8-(4′-(aminomethyl)-4-ethoxybiphenyl-3-ylsulfonyl)-1-oxa-8-azaspiro[4.5]decan-3-ylamino)-2-hydroxypropoxy)phenylsulfonyl)-2-methylpropan-1-ol] |
| 31.1 nM | CS(=O)(=O)c1cccc(OC[C@@H](O)CN[C@H]2COC3(CCN(S(=O)(=O)c4ccc5ncccc5c4)CC3)C2)c1 [Compound 111, (S)-1-(3-(methylsulfonyl)phenoxy)-3-((R)-8-(quinolin-6-ylsulfonyl)-1-oxa-8-azaspiro[4.5]decan-3-ylamino)propan-2-ol] |

Source: US10927123B2, “Modulators of the beta-3 adrenergic receptor useful for the treatment or prevention of disorders related thereto” (Arena Pharmaceuticals, Inc., priority 2016, dated 2021)
